Results from patent US9895730B2, “Method for extraction and surfactant enhanced subsurface contaminant recovery” (priority 2007, dated 2018).
Read-outs that look alike come from different tables or passages of the source.

Legend:
[1] = Chlorinated DNAPL dissolution experiments with Citrus Burst-3; assay type: physicochemical; conditions: water, thermodynamic from solid, in presence of chlorinated DNAPL, without cosolvent-surfactant, 25° C., read-out: Observed Solubility in Control Sample
Description: In order to test the treatment of chlorinated compounds, a chlorinated solvent DNAPL was obtained from a site consisting of chlorinated solvents and chlorinated semi-volatile compounds. Composition of the chlorinated solvent DNAPL is presented based on determinations using USEPA Methods 8260 and 8270.
Carbon tetrachloride and tetrachloroethylene comprised more than 87 percent of the DNAPL. Being a saturated compound, carbon tetrachloride is generally a pervasive and difficult to degrade compound once introduced to the subsurface.

[2] = cited from earlier work
[3] = cited from earlier work; remark: listed apart in the source

Compound	log Kow ([2]; Table 5)	Pure Compound Aqueous Solubility [3]	log Kow ([2]; Table 2)	also measured
ClC(Cl)(Cl)Cl [Carbon Tetrachloride (CTC), Carbon Tetrachloride]	2.83	129 µg/mL		solubility at 48 h [1]: 100 µg/mL
CCc1ccccc1 [Ethylbenzene]			3.1	
Cc1ccc2ccccc2c1 [2-Methylnaphthalene]			3.9	
Cc1ccc(C)c(C)c1 [1,2,4-Trimethybenzene]			3.7	
ClC(Cl)=C(Cl)C(Cl)=C(Cl)Cl [Hexachlorobutadiene (HCBD), Hexachlorobutadiene]	4.90			
Clc1c(Cl)c(Cl)c2c(Cl)c(Cl)c(Cl)c(Cl)c2c1Cl [Octachloronaphthalene (OCN), Octachloronaphthalene]		insoluble		
